In one test the test system is velvetleaf. The test can be described thus: Test A pre-/postemergence herbicide test. In kind it is in vivo, Abutilon theophrasti. Particulars: for Velvetleaf plant response rating: Preemergence, visual rating on 0 to 100 scale (0 no effect, 100 complete control). The essentials: (§1)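 Approximately 10 days after treatment in the greenhouse, plants were compared with untreated controls and given a 0–100 visual injury rating. Applications: preemergence directed soil spray; postemergence on 2–10 cm plants at the one- to two-leaf stage.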

Another test deals with chickweed. The test can be described thus: Test C postemergence herbicide test. The format is in vivo, Stellaria media. The text has this: At the same time, plants selected from these crop and weed species and also barley (winter barley, Hordeum vulgare), […]), chickweed (common chickweed, Stellaria media), deadnettle (henbit deadnettle, Lamium amplexicaule), and canarygrass (littleseed canarygrass, Phalaris minor) were planted in pots containing Redi-Earth® planting medium (Scotts Company, 14111 Scottslawn Road, Marysville, Ohio 43041) comprising spaghnum peat moss, vermiculite, wetting agent and starter nutrients and treated with postemergence applications of test chemicals formulated in the same manner. Plants ranged in height from 2 to 18 cm (1- to 4-leaf stage) for postemergence treatments. Treated plants and controls were maintained in a greenhouse for 13 to 15 days, after which time all species were compared to controls and visually evaluated. Plant response ratings, summarized in Table C, are based on a scale of 0 to 100 where 0 is no effect and 100 is complete control. A dash (-) response means no test result.

Another test has as its system morningglory. The test can be described thus: Test A pre-/postemergence herbicide test. The format is in vivo, Ipomoea spp. The note with it: for Morningglory plant response rating: Preemergence, visual rating on 0 to 100 scale (0 no effect, 100 complete control). The method, boiled down:
as §1

A further test deals with crabgrass, large. The test can be described thus: Test A pre-/postemergence herbicide test. In kind it is in vivo, Digitaria sanguinalis. Particulars: for Crabgrass, Large plant response rating: Preemergence, visual rating on 0 to 100 scale (0 no effect, 100 complete control). The method, boiled down: as §1
In the next test the test system is ryegrass, Italian. The test can be described thus: Test A pre-/postemergence herbicide test. In kind it is in vivo, Lolium multiflorum. The method, boiled down:
as §1

The subject of another test is ducksalad. The test can be described thus: Test C flooded paddy test. The format is in vivo, Heteranthera limosa. Particulars: Flood, scale of 0 to 100 where 0 is no effect and 100 is complete control, 13 to 15 days. The method, boiled down:
(§2)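 Plants at the 2-leaf stage in pots flooded to 3 cm were treated by applying compound directly to the paddy water, with depth held throughout. After 13 to 15 days in a greenhouse, response was rated visually against controls on a 0 (no effect) to 100 (complete control) scale.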

A further test has as its system ragweed. The test can be described thus: Test A pre-/postemergence herbicide test. In kind it is in vivo, Ambrosia elatior. The method, boiled down:
as §1

The test system of another test is galium. The test can be described thus: Test A postemergence herbicide test. In kind it is in vivo, Galium aparine. The method, boiled down:
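Injury was rated visually about 10 days after treatment on a 0 (no effect) to 100 (complete control) scale, compared with untreated plants. Test chemicals were sprayed postemergence onto greenhouse plants 2–10 cm high at one to two leaves, grown in a loam–sand blend.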

Another test has as its system barnyardgrass. The test can be described thus: Test C flooded paddy test. The note with it: Flood, scale of 0 to 100 where 0 is no effect and 100 is complete control, 13 to 15 days. In kind it is in vivo, Echinochloa crus-galli. The essentials:
as §2

In a further test the test system is kochia. The test can be described thus: Test A pre-/postemergence herbicide test. The format is in vivo, Kochia scoparia. The method, boiled down: as §1
Setting [1] is: Postemergence, 1000 g ai/ha, 0 to 100 scale (0 no effect, 100 complete control).
Setting [2] is: preemergence, 1000 g ai/ha, 0 to 100 scale.
[3] abbreviates: 31 g ai/ha, scale 0 (no effect) to 100 (complete control).
Setting [4] is: 62 g ai/ha, scale 0 to 100 (0 no effect, 100 complete control).
Where [5] appears, read: 125 g ai/ha, scale 0 to 100 (0 no effect, 100 complete control).
The mark [6] stands for this setting: 250 g ai/ha, scale 0 to 100 (0 no effect, 100 complete control).
[7] abbreviates: Postemergence, 125 g ai/ha, 0 to 100 scale, 0 no effect, 100 complete control.
Where [8] appears, read: Postemergence, 500 g ai/ha, 0 to 100 scale (0 no effect, 100 complete control).
The mark [9] stands for this setting: preemergence, 500 g ai/ha, 0 to 100 scale.
[10] abbreviates: Postemergence, 125 g ai/ha, visual rating on 0 to 100 scale (0 no effect, 100 complete control), approx. 10 days.
The mark [11] stands for this setting: Preemergence, 125 g ai/ha, 0 to 100 scale where 0 is no effect and 100 is complete control.
Where [12] appears, read: Preemergence, 500 g ai/ha, visual rating on 0 to 100 scale (0 no effect, 100 complete control).

Molecules are shown by their SMILES. Read-outs that look alike come from different tables or passages of the source.

For the compound `Cc1c(F)cccc1NC(=O)C1C(=O)NCC1c1ccc(F)c(F)c1` (racemic) [Compound 106], the “Plant response rating, Velvetleaf” value came to 40 in the test with velvetleaf (setting [1]) and 0 with velvetleaf (setting [2]). Also, the “Plant response rating, Chickweed” value in the test on chickweed (setting [3]) was 0; with chickweed (setting [4]) it was 0; with chickweed (setting [5]), 5; in the test on chickweed (setting [6]), 30. Also, the results for the “Plant response rating, Morningglory” value with morningglory (setting [1]) and in the test with morningglory (setting [2]) were 20 and 0, respectively. Besides, the “Plant response rating, Crabgrass, Large” value in the test with crabgrass, large (setting [1]) is reported as 90; with crabgrass, large (setting [2]) it was 90.
Take `O=C1NCC(c2cc(F)c(F)c(F)c2)C1C(=O)Nc1cccc(F)c1F` (centres unmarked) [Compound 48]: the “Plant response rating, Velvetleaf” value was determined as 0 with velvetleaf (setting [7]), 20 in the test on velvetleaf (setting [8]) and 0 in the test with velvetleaf (setting [9]). In addition, in the test with velvetleaf (125 g ai/ha), the “Velvetleaf plant response rating” value was 0. Besides, the “Plant response rating, Chickweed” value in the test with chickweed (16 g ai/ha, scale 0 to 100 (0 no effect, 100 complete control)) is listed as 0; in the test on chickweed (setting [3]), 0; in the test on chickweed (setting [4]), 30; in the test on chickweed (setting [5]) it was 30. In addition, the “Plant response rating, Morningglory” value in the test on morningglory (setting [7]) is given as 0; in the test with morningglory (setting [8]) it was 20; in the test with morningglory (setting [9]), 0. Besides, in the test on morningglory (125 g ai/ha), the “Morningglory plant response rating” value was 0. Further, the “Plant response rating, Crabgrass, Large” value with crabgrass, large (setting [7]) worked out at 80; in the test on crabgrass, large (setting [8]) it was 80; with crabgrass, large (setting [9]), 90. Further, the “Crabgrass, Large plant response rating” value in the test on crabgrass, large (125 g ai/ha) turned out to be 90.
Turning to `O=C1NCC(c2cc(F)c(F)cc2F)C1C(=O)Nc1cccc(F)c1F` (centres unmarked) [Compound 50], the “Plant response rating, Velvetleaf” value with velvetleaf (setting [7]), with velvetleaf (setting [8]) and in the test on velvetleaf (setting [9]) was 0 in each case. In addition, the “Velvetleaf plant response rating” value in the test with velvetleaf (125 g ai/ha) is on record as 0. Also, the “Plant response rating, Chickweed” value in the test with chickweed (setting [3]) is given as 0; in the test with chickweed (setting [4]), 0; in the test on chickweed (setting [5]) it was 0; with chickweed (setting [6]), 5. Besides, the “Plant response rating, Morningglory” value in the test with morningglory (setting [7]), in the test on morningglory (setting [8]) and in the test with morningglory (setting [9]) was 0 in each case. Also, in the test on morningglory (125 g ai/ha), the “Morningglory plant response rating” value came to 0. The “Plant response rating, Crabgrass, Large” value in the test on crabgrass, large (setting [7]) was determined as 80; in the test on crabgrass, large (setting [8]), 80; in the test with crabgrass, large (setting [9]), 90. The “Crabgrass, Large plant response rating” value in the test on crabgrass, large (125 g ai/ha) came out at 90.
For `O=C1NCC(c2ccc(F)c(Cl)c2)C1C(=O)Nc1ccccc1F` (centres unmarked) [Compound 60], the “Plant response rating, Velvetleaf” value in the test with velvetleaf (setting [7]), in the test with velvetleaf (setting [8]) and with velvetleaf (setting [9]) was 0 throughout. Besides, the “Velvetleaf plant response rating” value in the test with velvetleaf (125 g ai/ha) came to 0. Also, the “Plant response rating, Chickweed” value turned out to be 0 in the test with chickweed (setting [3]), 10 in the test on chickweed (setting [4]) and 30 in the test on chickweed (setting [5]). In addition, the “Plant response rating, Morningglory” value with morningglory (setting [7]), in the test with morningglory (setting [8]) and in the test with morningglory (setting [9]) was 0 throughout. The “Morningglory plant response rating” value in the test on morningglory (125 g ai/ha) stood at 0. Moreover, the “Plant response rating, Crabgrass, Large” value is 80 with crabgrass, large (setting [7]); 90 in the test on crabgrass, large (setting [8]); 90 in the test on crabgrass, large (setting [9]). In addition, the “Crabgrass, Large plant response rating” value in the test on crabgrass, large (125 g ai/ha) is on record as 90.
Consider `O=C1NCC(c2ccc(C(F)(F)F)cc2)C1C(=O)Nc1ccccc1F` (centres unmarked) [Compound 79, N-(2-fluorophenyl)-2-oxo-4-[4-(trifluoromethyl)phenyl]-3-pyrrolidinecarboxamide], for which the pest or weed control at 125 g/ha in the test on velvetleaf (Abutilon theophrasti, post-emergence, 240 h, Postemergence, 125 g ai/ha, 0 to 100 scale, 0 no effect, 100 complete control, read-out: Plant response rating, Velvetleaf) was found to be 10%; in the test with morningglory (Ipomoea, post-emergence, 240 h, Postemergence, 125 g ai/ha, 0 to 100 scale, 0 no effect, 100 complete control, read-out: Plant response rating, Morningglory) it was 0%; in the test on crabgrass, large (Digitaria sanguinalis, post-emergence, 240 h, Postemergence, 125 g ai/ha, 0 to 100 scale, 0 no effect, 100 complete control, read-out: Plant response rating, Crabgrass, Large), 80%. Besides, the pest or weed control at 500 g/ha is 60% in the test with velvetleaf (Abutilon theophrasti, post-emergence, 240 h, Postemergence, 500 g ai/ha, 0 to 100 scale (0 no effect, 100 complete control), read-out: Plant response rating, Velvetleaf); 30% with velvetleaf (Abutilon theophrasti, pre-emergence, 240 h, preemergence, 500 g ai/ha, 0 to 100 scale, read-out: Plant response rating, Velvetleaf); 10% with morningglory (Ipomoea, post-emergence, 240 h, Postemergence, 500 g ai/ha, 0 to 100 scale (0 no effect, 100 complete control), read-out: Plant response rating, Morningglory); 0% in the test with morningglory (Ipomoea, pre-emergence, 240 h, preemergence, 500 g ai/ha, 0 to 100 scale, read-out: Plant response rating, Morningglory); 90% in the test on crabgrass, large (Digitaria sanguinalis, post-emergence, 240 h, Postemergence, 500 g ai/ha, 0 to 100 scale (0 no effect, 100 complete control), read-out: Plant response rating, Crabgrass, Large); 90% in the test with crabgrass, large (Digitaria sanguinalis, pre-emergence, 240 h, preemergence, 500 g ai/ha, 0 to 100 scale, read-out: Plant response rating, Crabgrass, Large). The “Velvetleaf plant response rating” value with velvetleaf (125 g ai/ha) came out at 0. The “Plant response rating, Chickweed” value turned out to be 60 in the test on chickweed (setting [3]), 80 with chickweed (setting [4]), 90 in the test with chickweed (setting [5]) and 90 in the test with chickweed (setting [6]). Further, the “Morningglory plant response rating” value with morningglory (125 g ai/ha) is listed as 0. In addition, the “Crabgrass, Large plant response rating” value in the test on crabgrass, large (125 g ai/ha) was determined as 90.
Take `O=C1NCC(c2cccc(OC(F)F)c2)C1C(=O)Nc1ccccc1F` (centres unmarked) [Compound 323]: the “Plant response rating, Ryegrass, Italian” value with ryegrass, Italian (setting [10]) is listed as 30; with ryegrass, Italian (setting [8]) it was 30; with ryegrass, Italian (setting [11]) it was 20. In addition, in the test on ryegrass, Italian (setting [12]), the “Ryegrass, Italian plant response rating” value is 30. Moreover, the “Plant response rating, Ducksalad” value in the test with ducksalad (31 g ai/ha) was 50; with ducksalad (62 g ai/ha), 75; with ducksalad (125 g ai/ha) it was 90; in the test with ducksalad (250 g ai/ha), 100. Further, the “Plant response rating, Ragweed” value in the test on ragweed (setting [10]) came out at 0; with ragweed (setting [8]) it was 20; with ragweed (setting [11]), 20. The “Ragweed plant response rating” value in the test with ragweed (setting [12]) was found to be 80. Further, the “Plant response rating, Galium” value with galium (125 g ai/ha, visual rating on 0 to 100 scale (0 no effect, 100 complete control), approx. 10 days) is recorded as 40; with galium (500 g ai/ha, 0 to 100 scale (0 no effect, 100 complete control)) it was 60. The “Plant response rating, Barnyardgrass” value in the test on barnyardgrass (31 g ai/ha) came to 25; in the test on barnyardgrass (62 g ai/ha), 45; in the test on barnyardgrass (125 g ai/ha), 50; in the test with barnyardgrass (250 g ai/ha) it was 65. Further, the “Plant response rating, Kochia” value is on record as 40 in the test with kochia (setting [10]), 90 with kochia (setting [8]) and 50 in the test on kochia (setting [11]). Also, the “Kochia plant response rating” value with kochia (setting [12]) is 80.

These data come from patent US10294202B2, “Pyrrolidinones as herbicides” (FMC Corporation, priority 2013, dated 2019).
